{
  "source": "patent US11952611B2",
  "about": "“Methods and systems for detection of antibiotic resistance” (Laboratory Corporation of America Holdings, priority 2017, dated 2024)",
  "key": {"E. coli O157:H7": {"system": "E. coli O157:H7", "type": "cell-based", "details": "for signal reduction as compared to controls: 30 min antibiotic then 120 min phage"}, "MRSA": {"system": "MRSA", "assay": "Recombinant phage luciferase assay, oxacillin vs cefoxitin (Table 1), MRSA strains", "type": "cell-based, Staphylococcus aureus", "protocol": "(§1) Bacterial strains were serially diluted to approximately 1×10^3 CFU/mL and transferred to a 96-well plate at 135 μL per well. 15 μL of oxacillin or cefoxitin were added to the wells to reach a final concentration of 1.0 μg/mL or 2.0 μg/mL of oxicillin or 2.0 μg/mL, 4.0 μg/mL, 8.0 μg/mL, or 10.0 μg/mL of cefoxitin. The plate was then sealed and incubated at 37° C. for 2 hours. 10 μL of recombinant phage (1.6×10^8 pfu/mL) was added to each well. The plate was then re-sealed and incubated at 37° C. for 2 hours. A master mix was made containing 15 μL 5× lysis buffer, 50 μL luciferase assay buffer, and 1 μL luciferase substrate per well. 65 μL of master mix was added to each well. Luminescence from the reactions was read on a GLOMAX® Navigator and relative luminal units (RLU) for each reaction were analyzed. RLU values three times greater than an established background RLU level for LB (>750 RLU) were considered positive. The results, shown in Table 1, indicate that the recombinant phage are capable of detecting the tested bacterial strains."}, "MSSA": {"system": "MSSA", "assay": "Recombinant phage luciferase assay, oxacillin vs cefoxitin (Table 1), MSSA strains", "type": "cell-based, Staphylococcus aureus", "protocol": "as §1"}, "[1]": {"details": "strain AR0463 MRSA, detected CFU 419"}, "[2]": {"details": "strain AR0465 MRSA, detected CFU 111"}, "[3]": {"details": "strain AR0472 MRSA, detected CFU 190"}, "[4]": {"details": "strain AR0476 MRSA, detected CFU 194"}, "[5]": {"details": "strain AR0481 MRSA, detected CFU 43"}, "[6]": {"details": "strain BAA-1720 MRSA, detected CFU 201"}, "[7]": {"details": "strain 12600 MSSA, detected CFU 389"}, "[8]": {"details": "strain AR0484 MSSA, detected CFU 153"}, "[9]": {"details": "strain AR0488 MSSA, detected CFU 285"}, "[10]": {"details": "strain AR0491 MSSA, detected CFU 300"}},
  "note": "Read-outs that look alike come from different tables or passages of the source.",
  "data": [
    {"smiles": "CN[C@H](CC(C)C)C(=O)N[C@H]1C(=O)N[C@@H](CC(N)=O)C(=O)N[C@H]2C(=O)N[C@H]3C(=O)N[C@H](C(=O)N[C@H](C(=O)O)c4cc(O)cc(O)c4-c4cc3ccc4O)[C@H](O)c3ccc(c(Cl)c3)Oc3cc2cc(c3O[C@@H]2O[C@H](CO)[C@@H](O)[C@H](O)[C@H]2O[C@H]2C[C@](C)(N)[C@H](O)[C@H](C)O2)Oc2ccc(cc2Cl)[C@H]1O", "note": "[vancomycin]", "values": [
      {"measurement": "cells resistant or sensitive", "setting": "E. coli O157:H7", "value": "resistant"},
      {"measurement": "signal change upon exposure", "setting": "E. coli O157:H7; 10 μg/mL, 25 μg/mL, 50 μg/mL, or 100 μg/mL", "value": "signals increased"}
    ]},
    {"smiles": "Cc1onc(-c2ccccc2)c1C(=O)N[C@@H]1C(=O)N2[C@@H]1SC(C)(C)[C@@H]2C(=O)O", "note": "[Oxacillin, oxacillin]", "values": [
      {"measurement": "detection after incubation with oxacillin", "setting": "MRSA; several MRSA strains", "value": "no detection"},
      {"measurement": "Oxacillin (RLU) 1 ug/mL", "setting": "MRSA; [1]", "value": 426, "unit": "RLU"},
      {"measurement": "Oxacillin (RLU) 2 ug/mL", "setting": "MRSA; [1]", "value": 353, "unit": "RLU"},
      {"measurement": "Oxacillin (RLU) 1 ug/mL", "setting": "MRSA; [2]", "value": 4944, "unit": "RLU"},
      {"measurement": "Oxacillin (RLU) 2 ug/mL", "setting": "MRSA; [2]", "value": 4965, "unit": "RLU"},
      {"measurement": "Oxacillin (RLU) 1 ug/mL", "setting": "MRSA; [3]", "value": 348, "unit": "RLU"},
      {"measurement": "Oxacillin (RLU) 2 ug/mL", "setting": "MRSA; [3]", "value": 281, "unit": "RLU"},
      {"measurement": "Oxacillin (RLU) 1 ug/mL", "setting": "MRSA; [4]", "value": 553, "unit": "RLU"},
      {"measurement": "Oxacillin (RLU) 2 ug/mL", "setting": "MRSA; [4]", "value": 212, "unit": "RLU"},
      {"measurement": "Oxacillin (RLU) 1 ug/mL", "setting": "MRSA; [5]", "value": 467, "unit": "RLU"},
      {"measurement": "Oxacillin (RLU) 2 ug/mL", "setting": "MRSA; [5]", "value": 268, "unit": "RLU"},
      {"measurement": "Oxacillin (RLU) 1 ug/mL", "setting": "MRSA; [6]", "value": 23810, "unit": "RLU"},
      {"measurement": "Oxacillin (RLU) 2 ug/mL", "setting": "MRSA; [6]", "value": 22560, "unit": "RLU"},
      {"measurement": "detection after incubation with oxacillin", "setting": "MSSA; several MSSA strains", "value": "no detection"},
      {"measurement": "Oxacillin (RLU) 1 ug/mL", "setting": "MSSA; [7]", "value": 1459, "unit": "RLU"},
      {"measurement": "Oxacillin (RLU) 2 ug/mL", "setting": "MSSA; [7]", "value": 697, "unit": "RLU"},
      {"measurement": "Oxacillin (RLU) 1 ug/mL", "setting": "MSSA; [8]", "value": 268, "unit": "RLU"},
      {"measurement": "Oxacillin (RLU) 2 ug/mL", "setting": "MSSA; [8]", "value": 219, "unit": "RLU"},
      {"measurement": "Oxacillin (RLU) 1 ug/mL", "setting": "MSSA; [9]", "value": 228, "unit": "RLU"},
      {"measurement": "Oxacillin (RLU) 2 ug/mL", "setting": "MSSA; [9]", "value": 198, "unit": "RLU"},
      {"measurement": "Oxacillin (RLU) 1 ug/mL", "setting": "MSSA; [10]", "value": 245, "unit": "RLU"},
      {"measurement": "Oxacillin (RLU) 2 ug/mL", "setting": "MSSA; [10]", "value": 221, "unit": "RLU"}
    ]},
    {"smiles": "CC1(C)S[C@@H]2[C@H](NC(=O)[C@H](N)c3ccccc3)C(=O)N2[C@H]1C(=O)O", "note": "[ampicillin]", "values": [
      {"measurement": "cells resistant or sensitive", "setting": "E. coli O157:H7", "value": "sensitive"},
      {"measurement": "signal reduction as compared to controls", "setting": "E. coli O157:H7; 10 μg/mL", "value": "about 100 fold"},
      {"measurement": "signal reduction as compared to controls", "setting": "E. coli O157:H7; 25 μg/mL", "value": "~1400", "unit": "fold"},
      {"measurement": "signal reduction as compared to controls", "setting": "E. coli O157:H7; 50 μg/mL", "value": "~2200", "unit": "fold"}
    ]}
  ]
}
